In patent US10548912B2, “Dosage regimen for a tiacumicin compound” (Astellas Pharma Europe Ltd., priority 2015, dated 2020):
Like-named read-outs stand apart in the source and are kept apart here.

What was measured:
[1] = tested on: Clostridium difficile infection; details: Louie 2011; 200 mg Fidaxomicin twice daily or vancomycin 125 mg four times daily orally for 10 days; cited from earlier work
[2] = tested on: Clostridium difficile infection; details: Cornely 2012; 200 mg Fidaxomicin twice daily or vancomycin 125 mg four times daily orally for 10 days; cited from earlier work
CDI = details: Phase III studies, mITT analysis; cited from earlier work
[3] = tested on: Clostridium difficile (C. diff) toxins A and B; test: Detection of C. difficile toxins A and B in human faecal samples by ELISA (EXTEND samples); type: in vivo
Method: The detection of Clostridium difficile (C. diff) toxins A and B in human faecal samples was performed by ELISA. The samples to be analysed originated from clinical study 2819-MA-1002 (EXTEND).
The samples were sent to LGC (Analytical lab in Fordham, Cambridgeshire, UK) packed in dry ice and upon receipt stored in a freezer (nominally −80° C.). For each patient a stool sample was collected at Day 0 (screening) and also in case of disease recurrence or an unscheduled visit. For subjects participating in the Microbiome sub-study stool samples were collected at: Day 0 (screening), Day 5, Day 12, Day 27, Day 40, Day 55 and in the case of disease recurrence or an unscheduled visit. A total of 596 faecal samples were collected during the study.
C. difficile toxins A and B in human faecal samples were detected using TECHLAB C. difficile Tox A/B II ELISA kits (Product Number T5015).
The assay readout is the spectrophotometric dual wavelength optical density (OD) read at 450 nm and referenced at 620 nm and expressed in Absorbance Units (AU). All samples were measured in duplicate. The presence (+) or absence (−) of toxin was reported together with the mean OD.
The acceptability of each batch of test samples was dependent on the data from the QC samples fulfilling the acceptance criteria outlined below in Table 5, in that all positive QCs remain above the cut off value of >0.080 OD and negative QCs remain ≤0.080 OD. All batches contained 2 separate sets of QC samples which were measured in duplicate. The precision was calculated between the OD of replicates of each set using the coefficient of variation (CV) which should be <20%.

[4] = tested on: Clostridium difficile infections (CDI); details: following a vancomycin taper; cited from earlier work
[5] = tested on: Clostridium difficile infection; test: Phase IIIb/IV randomized open-label EXTEND study (2819-MA-1002): extended fidaxomicin vs standard vancomycin; type: in vivo, human
Method: Fidaxomicin (FDX) is believed to reduce recurrence primarily through minimal collateral damage to colonic microflora. […] Subjects will receive 200 mg twice daily (b.i.d.) for 5 days from Day 1 to Day 5. From Day 6 to Day 25, subjects will receive 200 mg once daily on alternate days (first alternate day dose given on Day 7). This extension of the dose will allow a longer period for the protective microflora to recover and extend the period of time over which Clostridium difficile cells are suppressed, and kill any dormant spores that germinate. The extension of the dose also targets the early recurrence period documented in the phase 3 studies—the first 15 days after the end of therapy during which the majority of recurrences occurred. By covering this period this revised dosing regimen may reduce the recurrence to <10%, preferably to <5% and even more preferred to <3%. The impact on the gut microflora was limited supporting the rationale for this study.
The dosing of vancomycin (Vancocin™) to be administered in this study is in line with the SmPC for Vancocin. Subjects will receive 125 mg four times daily (q.i.d.) for 10 days from Day 1 to Day 10.
The dosage regimen was as described in Table 1 of Example 1.

[6] = Sub-study visit day 5, n = 20 per arm
[7] = Sub-study visit day 12, n = 20 per arm
[8] = Sub-study visit day 27, n = 20 Fidaxomicin, 17 Vancomycin
[9] = Day 55, extended fidaxomicin or standard vancomycin
[10] = Table 7, extended fidaxomicin regimen of Example 1 or standard vancomycin
[11] = extended fidaxomicin Day 55, standard vancomycin Day 40

## CN[C@H](CC(C)C)C(=O)N[C@H]1C(=O)N[C@@H](CC(N)=O)C(=O)N[C@H]2C(=O)N[C@H]3C(=O)N[C@H](C(=O)N[C@H](C(=O)O)c4cc(O)cc(O)c4-c4cc3ccc4O)[C@H](O)c3ccc(c(Cl)c3)Oc3cc2cc(c3O[C@@H]2O[C@H](CO)[C@@H](O)[C@H](O)[C@H]2O[C@H]2C[C@](C)(N)[C@H](O)[C@H](C)O2)Oc2ccc(cc2Cl)[C@H]1O [vancomycin]
[1]
  Recurrence 30 days after end of treatment (%): 25.3%
  Recurrence 30 days after end of treatment (patients/N): 67/265
  Sustained clinical cure 30 days after end of treatment (patients/N): 198/309
[2]
  Recurrence 30 days after end of treatment (%): 26.9%
  Recurrence 30 days after end of treatment (patients/N): 60/223
  Sustained clinical cure 30 days after end of treatment (patients/N): 163/257
CDI
  Recurrence of CDI: 26%
[3]; [6]
  CDI toxin in faecal stool samples, Negative (%): (75%)
  CDI toxin in faecal stool samples, Negative (number of subjects): 15
  CDI toxin in faecal stool samples, Positive (%): (25.0%)
  CDI toxin in faecal stool samples, Positive (number of subjects): 5
[3]; [7]
  CDI toxin in faecal stool samples, Negative (%): (100.0%)
  CDI toxin in faecal stool samples, Negative (number of subjects): 20
  CDI toxin in faecal stool samples, Positive (number of subjects): 0
[3]; [8]
  CDI toxin in faecal stool samples, Negative (%): (82.4%)
  CDI toxin in faecal stool samples, Negative (number of subjects): 14
  CDI toxin in faecal stool samples, Positive (%): (17.6%)
  CDI toxin in faecal stool samples, Positive (number of subjects): 3
[4]
  Average symptom-free interval (SFI): 37 days
[5]; Day 1
  % of patients with <3 Unformed bowel movements per day (UBM): 21.1%
  % of patients with ≥3 Unformed bowel movements per day (UBM): 78.9%
[5]; Day 2
  % of patients with <3 Unformed bowel movements per day (UBM): 40.6%
  % of patients with ≥3 Unformed bowel movements per day (UBM): 59.4%
[5]; Day 3
  % of patients with <3 Unformed bowel movements per day (UBM): 59.6%
  % of patients with ≥3 Unformed bowel movements per day (UBM): 40.4%
[5]; Day 4
  % of patients with <3 Unformed bowel movements per day (UBM): 72.0%
  % of patients with ≥3 Unformed bowel movements per day (UBM): 28.0%
[5]; Day 5
  % of patients with <3 Unformed bowel movements per day (UBM): 81.4%
  % of patients with ≥3 Unformed bowel movements per day (UBM): 18.6%
[5]; Day 6
  % of patients with <3 Unformed bowel movements per day (UBM): 80.6%
  % of patients with ≥3 Unformed bowel movements per day (UBM): 19.4%
[5]; Day 7
  % of patients with <3 Unformed bowel movements per day (UBM): 85.5%
  % of patients with ≥3 Unformed bowel movements per day (UBM): 14.5%
[5]; Day 8
  % of patients with <3 Unformed bowel movements per day (UBM): 86.8%
  % of patients with ≥3 Unformed bowel movements per day (UBM): 13.2%
[5]; Day 9
  % of patients with <3 Unformed bowel movements per day (UBM): 88.1%
  % of patients with ≥3 Unformed bowel movements per day (UBM): 11.9%
[5]; Day 10
  % of patients with <3 Unformed bowel movements per day (UBM): 89.9%
  % of patients with ≥3 Unformed bowel movements per day (UBM): 10.1%
[5]; Day 11
  % of patients with <3 Unformed bowel movements per day (UBM): 91.5%
  % of patients with ≥3 Unformed bowel movements per day (UBM): 8.5%
[5]; Day 12
  % of patients with <3 Unformed bowel movements per day (UBM): 94.7%
  % of patients with ≥3 Unformed bowel movements per day (UBM): 5.3%
[5]; Day 13
  % of patients with <3 Unformed bowel movements per day (UBM): 84.4%
  % of patients with ≥3 Unformed bowel movements per day (UBM): 15.6%
[5]; [9]
  Recurrence of CDI (%) at visit 5 (Day 55): 16.1%
  Recurrence of CDI at visit 5 (Day 55) (patients/N): 26/161
[5]; Day 55, extended fidaxomicin or standard vancomycin, listed as VAN
  Recurrence of CDI at visit 5 (Day 55) (patients/N): 15/94
[5]; [10]
  Recurrence 30 days after end of treatment (%): 16.1%
  Recurrence 30 days after end of treatment (patients/N): 26/161
[5]; [11]
  Sustained clinical cure (%) at 30 days after end of treatment: 62.9%
  Sustained clinical cure at 30 days after end of treatment (patients/N): 105/167
[5]; extended fidaxomicin Day 55, standard vancomycin Day 40, listed as VAN
  Sustained clinical cure (%) at 30 days after end of treatment: 62.9%
